Experimental data taken from patent publication US7547713B2, “O-pyridinequinone derivatives, the composition containing the derivatives, the process for preparation of the derivatives and the use of the derivatives” (priority 2002, dated 2009).
“Also recorded” adds a separate entry of the source. Like-named read-outs stand apart in the source and are kept apart here.

Columns and labels:
[1] = system: mouse skin capillary permeability; assay: Increment of the mouse skin capillary permeability (xylene, Evans blue); type: in vivo; conditions: OD at 590 nm, blank control 0.442 ± 0.240, lower is better
Source text: One hundred and seventy healthy male mice were divided randomly into 17 groups, 10 mice per group, namely, the blank control group, the high, medium, and low dosage groups of 5,6-di(m-acetylphenylamino)-2,3-pyridindione, respectively, the high, medium, and low dosage groups of 5,6-di(m-carboxylphenylamino)-2,3-pyridindione, respectively, the high, medium, and low dosage groups of 5,6-di(p-carboxylphenylamino)-2,3-pyridindione, respectively, the high, medium, and low dosage groups of 5,6-di(p-chlorophenylamino)-2,3-pyridindione, respectively, the high, medium, and low dosage groups of 5,6-di(p-tolylamino)-2,3-pyridindione, and the aspirin group as the positive control group. The mice were administered via gastro infusion according to the Table 5, and 1 hour later, 0.5%. Evans blue saline was injected into the mice via tail vain at 0.1 ml/10 g, then xylene with a dosage of 0.03 ml/mouse was applied to the mice in the shaved area at the middle belly. The mice were killed by cervical dislocation 20 min later, and their belly skin was peeled off, where the blue area was removed by using a biopsy punch, broken up by using surgery scissors, and put into covered glass tubes. Seven milliliters of acetone/water (7:3, v/v) solution was added into each tube, which was then stored in the dark and was gently shaken up 2-3 times daily. After 3 days, the solution in each tube was centrifuged at 2000 rpm for 10 min, and the supernatant was measured for optical density at 590 nm with the absorption of acetone/water (7:3, v/v) solution as the baseline. The lower the OD value, the better the anti-inflammatory effect.

[2] = system: animal model of anti-histamine; assay: Animal model of anti-histamine (Evans blue, dyed back skin); type: in vivo; conditions: rat; for Inhibition rate (%): histamine s.c., Evans blue; for Absorbency(A): blank control 0.099
Protocol: Forty healthy male rats were divided randomly into 4 groups, […], namely, the blank control group, the 5,6-di(m-acetylphenylamino)-2,3-pyridindione group, the 5,6-di(m-carboxylphenylamino)-2,3-pyridindione group, and the aspirin group as the positive control group. The compounds with dosage listed in Table 3 were administered orally to the rats, respectively, then 0.1 ml of […] was administered subcutaneously, and then 1 ml of 1% Evans blue was immediately injected intravenously under the tongue.

[3] = system: mouse model of auricle swelling; assay: Mouse model of auricle swelling (xylene); type: in vivo; conditions: xylene after 60 min, killed 4 hours later
Protocol: Forty healthy male mice were divided randomly into 4 groups, 10 mice per group, namely, the blank control group, the 5,6-di(m-acetylphenylamino)-2,3-pyridindione group, the 5,6-di(m-carboxylphenylamino)-2,3-pyridindione group, and the aspirin group as the drug control group. The compounds with dosage listed in Table 2 were administered orally to the […], respectively. After 60 min 0.05 ml xylene (analytical grade) was applied on the right ear of each mouse, respectively. The mice were killed 4 hours later, a disk of ear tissue was removed from the same location of both ears using a 5.5-mm biopsy punch, then each of the ear disks was weighed, and the rates of auricle swelling inhibition were calculated, as listed in Table 2.

[4] = system: rat model of toe swelling; assay: Rat model of toe swelling (3% formaldehyde); type: in vivo; conditions: toe volume 2 hours after injection
Protocol: Forty healthy male rats were divided randomly into 4 groups, 10 rats per group, namely, the blank control group, the 5,6-di(m-acetylphenylamino)-2,3-pyridindione group, the 5,6-di(m-carboxylphenylamino)-2,3-pyridindione group, and the aspirin group as the drug control group. 0.1 ml of inflammation inducer (3% formaldehyde) was subcutaneously injected into the right toe of the hind leg of each rat. After 24 hours, the compounds with dosage listed in Table 1 were injected into the rats, respectively. The volume of the toes was measured 2 hours later after injection by using the Water Volume Method described in the Methodology of Pharmacology Experiments, 2nd edition, Shu-yun Xu, etc., People's Medical Publishing House, Beijing, 1991.

COX-1 = COX-1 (Homo sapiens, UniProt P23219); assay: Inhibition of COX-1 (TMPD/arachidonic acid, absorption at 611 nm); type: biochemical
Sequence of COX-1 (P23219 24-599): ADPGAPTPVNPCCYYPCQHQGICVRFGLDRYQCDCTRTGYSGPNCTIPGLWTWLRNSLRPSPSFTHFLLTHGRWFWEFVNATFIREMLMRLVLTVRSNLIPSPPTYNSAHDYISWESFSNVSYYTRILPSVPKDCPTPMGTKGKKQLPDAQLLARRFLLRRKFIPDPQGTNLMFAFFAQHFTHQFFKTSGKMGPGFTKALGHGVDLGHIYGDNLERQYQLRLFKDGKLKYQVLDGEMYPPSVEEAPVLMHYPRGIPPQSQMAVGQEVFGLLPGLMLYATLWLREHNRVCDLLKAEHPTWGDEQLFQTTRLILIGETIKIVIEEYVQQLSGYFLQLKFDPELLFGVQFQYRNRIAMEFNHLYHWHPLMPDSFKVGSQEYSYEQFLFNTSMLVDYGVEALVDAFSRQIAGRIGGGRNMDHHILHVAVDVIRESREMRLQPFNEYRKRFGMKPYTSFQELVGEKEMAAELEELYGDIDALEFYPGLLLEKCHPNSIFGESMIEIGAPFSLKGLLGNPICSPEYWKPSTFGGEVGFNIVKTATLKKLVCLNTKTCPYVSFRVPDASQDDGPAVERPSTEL
Protocol: Methods: 4 μl of COX-1 was added to 960 μl 0.1 M Tris-HCl in a cell. The mixture was equilibrated for 30s, and then added with 1 μl inhibitor. After 2 min, 15 μl TMPD and 15 μl A.A. were immediately added to the mixture and mixed well. After 7 min, the absorption was measured at 611 nm.

COX-2 = molecular target: T1, COX-2 (Homo sapiens, UniProt P35354); assay: Inhibition of COX-2 in COLO 205 cell line (Prostaglandin E2 EIA); type: cell-based
T1 construct: host or cells: COLO 205
T1 sequence (P35354 18-604): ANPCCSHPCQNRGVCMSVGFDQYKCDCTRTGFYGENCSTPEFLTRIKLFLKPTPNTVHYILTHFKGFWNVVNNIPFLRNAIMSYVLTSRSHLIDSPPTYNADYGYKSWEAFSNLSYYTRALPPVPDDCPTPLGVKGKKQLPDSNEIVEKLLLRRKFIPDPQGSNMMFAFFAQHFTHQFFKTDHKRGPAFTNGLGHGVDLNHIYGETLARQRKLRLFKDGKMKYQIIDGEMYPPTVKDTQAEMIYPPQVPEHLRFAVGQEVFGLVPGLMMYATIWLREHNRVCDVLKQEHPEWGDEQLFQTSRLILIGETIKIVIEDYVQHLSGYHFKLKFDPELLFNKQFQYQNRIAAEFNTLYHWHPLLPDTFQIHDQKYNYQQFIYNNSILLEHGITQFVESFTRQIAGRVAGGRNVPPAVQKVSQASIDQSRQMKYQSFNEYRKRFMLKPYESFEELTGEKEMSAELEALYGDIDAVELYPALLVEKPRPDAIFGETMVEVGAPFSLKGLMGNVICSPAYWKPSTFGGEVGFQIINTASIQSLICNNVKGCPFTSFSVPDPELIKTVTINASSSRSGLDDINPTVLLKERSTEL
Source text: Enzyme-Linked ImmunoSorbent Assay Kit (Prostaglandins E2 (PEG2) EIA Kit-Monoclonal, Cayman Chemical company (U.S.A)).

mice = conditions: mouse, in vivo; for Death rate: both, 7 days
Protocol: Toxicological test of 5,6-di(m-acetylphenylamino)-2,3-pyridindione Single dose administration was used. 5,6-di(m-acetylphenylamino)-2,3-pyridindione was prepared to the required concentration with the presence of 0.5% DMSO. Sixty healthy male mice and 60 healthy female mice were divided randomly into 10 mice per group, 12 groups, among which 5 groups were administered by tail vein injection, and 5 groups were administered via gastro infusion, and the other two groups were used as negative controls. The activities and death of mice were observed and recorded for 7 days after the administration of the compound.

[5] = gastro infusion 1.0 mg/kg (low dosage)
[6] = gastro infusion 3.2 mg/kg (medium dosage)
[7] = gastro infusion 6.5 mg/kg (high dosage)
[8] = 5 mg/kg injected 24 h after formaldehyde

Row | Structure (SMILES) | OD (A) [1, 5] [A] | OD (A) [1, 6] [A] | OD (A) [1, 7] [A] | Inhibition rate (%) ([2]; 10 mg/kg orally) | Absorbency(A) ([2]; 10 mg/kg orally) | Inhibition rate (%) of auricle swelling ([3]; 30 mg/kg orally) [%] | Inhibition rate (%) of toe swelling [4, 8] [%] | also measured
1 | O=C1C=C(Nc2ccc(Cl)cc2)C(Nc2ccc(Cl)cc2)=NC1=O [5,6-di(p-chlorophenylamino)-2,3-pyridindione] | 0.142 ± 0.098 | 0.035 ± 0.026 | 0.015 ± 0.015 |  |  |  |  | 
2 | O=C1C=C(Nc2cccc(C(=O)O)c2)C(Nc2cccc(C(=O)O)c2)=NC1=O [5,6-di(m-carboxylphenylamino)-2,3-pyridindione] | 0.038 ± 0.026 | 0.030 ± 0.010 | 0.036 ± 0.011 | 16 | 0.084 | 65.5 | 45.5 | 
3 | O=C1C=C(Nc2ccc(C(=O)O)cc2)C(Nc2ccc(C(=O)O)cc2)=NC1=O [5,6-di(p-carboxylphenylamino)-2,3-pyridindione] | 0.089 ± 0.054 | 0.043 ± 0.023 | 0.030 ± 0.012 |  |  |  |  | 
4 | CC(=O)Oc1ccccc1C(=O)O [Aspirin, reference compound] |  |  |  |  |  |  |  | inhibition effect on COX-1 (COX-1): inhibited; Inhibition rate (%) ([2]; 160 mg/kg orally): 13%; Absorbency(A) ([2]; 160 mg/kg orally): 0.086 A; Inhibition rate (%) of auricle swelling ([3]; 100 mg/kg orally): 30.1%; Inhibition rate (%) of toe swelling ([4]; 50 mg/kg injected 24 h after formaldehyde): 10.1%
5 | Cc1ccc(NC2=CC(=O)C(=O)N=C2Nc2ccc(C)cc2)cc1 [5,6-di(p-tolylamino)-2,3-pyridindione] | 0.049 ± 0.049 | 0.011 ± 0.022 | 0.051 ± 0.042 |  |  |  |  | 
6 | CC(=O)c1cccc(NC2=CC(=O)C(=O)N=C2Nc2cccc(C(C)=O)c2)c1 [5,6-di(m-acetylphenylamino)-2,3-pyridindione] | 0.241 ± 0.121 | 0.035 ± 0.049 | 0.019 ± 0.018 | 19 | 0.081 | 83.2 | 62.5 | inhibition effect on COX-1 (COX-1; 1 μl of 10 mM inhibitor in dimethylsulfoxide, compared with control group without inhibitors, FIG. 1): no obvious inhibition effects; also recorded: almost no inhibition effect; inhibition of the activity of COX-2 (COX-2; COLO 205 cell line, PGE2 EIA, FIG. 2): higher inhibition effects on COX-2 than the former two; inhibition of the growth of the COLO205 cells ex vivo (COX-2; FIG. 2 legend): inhibits the growth of the COLO205 cells ex vivo; Death rate (mice; 720 mg/kg): 0; Death rate (mice; 1030 mg/kg): 0; Death rate (mice; 1470 mg/kg): 0; Death rate (mice; 2100 mg/kg): 0; Death rate (mice; 3000 mg/kg): 0; death of the animals (mice): No death of the animals was observed; toxic reaction in aspect of activity, reactivity, back hair, dejecta (mice): normal; Toxic reaction (mice; 720 mg/kg): normal; Toxic reaction (mice; 1030 mg/kg): normal; Toxic reaction (mice; 1470 mg/kg): normal; Toxic reaction (mice; 2100 mg/kg): normal; Toxic reaction (mice; 3000 mg/kg): normal
